Measurements: patent US11638713B2, “Patentiflorin A analogs as antiviral agents” (priority 2019, dated 2023)
Where two headings read alike, the source gives them in different places.

Experiments:
[1] = test system: HIV; assay: microbe, parasite or virus in culture; format: cell-based; conditions: for EC50: Human immunodeficiency virus 1, A549
[2] = test system: H5N1 virus; assay: microbe, parasite or virus in culture; format: cell-based, H5N1 influenza virus; conditions: for EC50: H5N1, A549, read-out: EC50 against H5N1 virus; for inhibition at 1 µg/mL: H5N1, A549, 1000 ng/mL; for inhibition at 5 µg/mL: H5N1, A549, 5000 ng/mL; for inhibition at 0.05 µg/mL: H5N1, A549, 50 ng/mL; for inhibition at 0.25 µg/mL: H5N1, A549, 250 ng/mL; for inhibition at 0.0125 µg/mL: H5N1, A549, 12.5 ng/mL; for inhibition at 0.5 µg/mL: H5N1, A549, 500 ng/mL
[3] = test system: EBOV (Ebola virus); assay: microbe, parasite or virus in culture; format: cell-based; conditions: Zaire ebolavirus; for EC50: A549, read-out: EC50 against EBOV; for inhibition at 0.0125 µg/mL: 12.5 ng/mL; for inhibition at 0.05 µg/mL: 50 ng/mL; for inhibition at 1 µg/mL: 1000 ng/mL; for inhibition at 5 µg/mL: 5000 ng/mL; for inhibition at 0.5 µg/mL: 500 ng/mL
[4] = test system: VSV (vesicular stomatitis virus); assay: microbe, parasite or virus in culture; format: cell-based; conditions: for EC50: A549, read-out: EC50 against VSV; for inhibition at 0.0125 µg/mL: A549, 12.5 ng/mL; for inhibition at 0.05 µg/mL: A549, 50 ng/mL
[5] = in vitro; conditions: human
[6] = test system: SARS-CoV-2; assay: microbe, parasite or virus in culture; format: cell-based; conditions: Severe acute respiratory syndrome coronavirus 2, HepG2, read-out: EC50 against SARS-CoV-2
[7] = test system: A549 cells; assay: cells; conditions: Homo sapiens, A549, read-out: % Inhibition against A549 cells
[8] = CC50 against the host cell line A549
[9] = Influenza A virus, read-out: % Inhibition against H5N1 virus
[10] = A549, read-out: % Inhibition against EBOV
[11] = read-out: % Inhibition against VSV

Row | Compound | EC50 [1] [nM] | EC50 ([2]; Influenza A virus) [nM] | EC50 [3] [nM] | EC50 [4] [nM] | CC50 ([5]; CC50 (nM)) [nM] | CC50 [5, 8] [nM] | inhibition at 0.05 µg/mL [2, 9] [%] | inhibition at 0.25 µg/mL [2, 9] [%] | further results
1 | C=CCOC(=O)O[C@@H]1COC(Oc2c3c(c(-c4ccc5c(c4)OCO5)c4cc(OC)c(OC)cc24)C(=O)OC3)[C@H](OC(=O)OCC=C)[C@H]1OC(C)=O (stereo partly drawn) [Compound 28ab3, 2″,4″-O-diallyl oxycarbonyl-3″-acetyl-7-O-β-D-xylosyldiphyllin] | 22.9 | 1.16 | 0.98 | 0.85 | 386 | 6.14 |  |  | 
2 | COc1cc2c(OC3O[C@H](C)[C@H](O)[C@H](O)[C@H]3O)c3c(c(-c4ccc5c(c4)OCO5)c2cc1OC)C(=O)OC3 (stereo partly drawn) [Compound 26e, 7-O-β-D-fucopyranosyldiphyllin] |  |  |  |  | > 9500 |  |  |  | anti-HIV activity (inhibition) ([1]; at 9496.9 nM): no inhibition; inhibition at 1 µg/mL [2, 9]: 48.5%; inhibition at 5 µg/mL [2, 9]: 88.9%; EC50 [6]: 30.4 nM
3 | C=CCOC(=O)O[C@@H]1COC(Oc2c3c(c(-c4ccc5c(c4)OCO5)c4cc(OC)c(OC)cc24)C(=O)OC3)[C@H](OC(=O)OCC=C)[C@H]1O (stereo partly drawn) [Compound 29a, 2″,4″-O-diallyl oxycarbonyl-7-O-β-D-xylosyldiphyllin] |  | 5.57 | 10.6 | 10.6 | 438 | 122 | 59.4 | 97.3 | 
4 | COc1cc2c(OC3OC[C@@H](O)[C@H](OCc4ccccc4)[C@H]3O)c3c(c(-c4ccc5c(c4)OCO5)c2cc1OC)C(=O)OC3 (stereo partly drawn) [Compound 31l, 3″-O-benzyl-7-O-β-D-xylosyldiphyllin] |  | 0.013 | 0.19 | 0.37 |  | 4.85 | 96 | 96.8 | % Inhibition against H5N1 virus ([2]; 12.5 ng/mL): 95.1%; % Inhibition against H5N1 virus ([2]; 50 ng/mL): 95.6%; inhibition at 0.0125 µg/mL [2, 9]: 82.8%; inhibition at 0.0125 µg/mL [3, 10]: 86.4%; inhibition at 0.05 µg/mL [3, 10]: 94.2%; inhibition at 0.0125 µg/mL [4, 11]: 88.7%; inhibition at 0.05 µg/mL [4, 11]: 98.4%; inhibition at 0.0125 µg/mL [7]: 52%; inhibition at 0.05 µg/mL [7]: 82.1%
5 | COc1cc2c(OC3O[C@H](C)[C@@H](O)[C@H](OC(=O)c4ccc(N(C)C)cc4)[C@H]3O)c3c(c(-c4ccc5c(c4)OCO5)c2cc1OC)C(=O)OC3 (stereo partly drawn) [Compound 31e, 3″-O-p-dimethylaminobenzoyl-7-O-β-D-patentiflorin A] | 2.41 | 0.74 | 1.13 | 2.41 | 17.7 | 17.7 | 97.9 | 98.4 | % Inhibition against H5N1 virus ([2]; 12.5 ng/mL): 95.4%; % Inhibition against H5N1 virus ([2]; 50 ng/mL): 96.5%; inhibition at 0.0125 µg/mL [2, 9]: 98.1%; inhibition at 0.0125 µg/mL [3, 10]: 77.5%; inhibition at 0.05 µg/mL [3, 10]: 86.5%; inhibition at 0.0125 µg/mL [4, 11]: 77.4%; inhibition at 0.05 µg/mL [4, 11]: 86.3%; inhibition at 0.0125 µg/mL [7]: 53.1%; inhibition at 0.05 µg/mL [7]: 66.8%
6 | COc1cc2c(OC3OC[C@@H](O)[C@H](OC(=O)N(C)C)[C@H]3O)c3c(c(-c4ccc5c(c4)OCO5)c2cc1OC)C(=O)OC3 (stereo partly drawn) [Compound 31a, 3″-O-dimethylcarbamyl-7-O-β-D-xylosyldiphyllin] |  |  |  |  | 55.8 |  | 94.4 | 97.6 | inhibition at 0.0125 µg/mL [2, 9]: 87.9%; inhibition at 1 µg/mL [2, 9]: 94.7%; inhibition at 5 µg/mL [2, 9]: 98.4%; inhibition at 1 µg/mL [3, 10]: 81.8%; inhibition at 5 µg/mL [3, 10]: 95.2%; inhibition at 1 µg/mL ([4]; A549, 1000 ng/mL, read-out: % Inhibition against VSV): 80.4%; inhibition at 5 µg/mL ([4]; A549, 5000 ng/mL, read-out: % Inhibition against VSV): 99.6%; inhibition at 1 µg/mL [7]: 47.5%; inhibition at 5 µg/mL [7]: 99.8%
7 | C=CCOC(=O)O[C@H]1C(Oc2c3c(c(-c4ccc5c(c4)OCO5)c4cc(OC)c(OC)cc24)C(=O)OC3)OC[C@@H](O)[C@@H]1OC(C)=O (stereo partly drawn) [Compound 28ab2, 2″-O-allyl oxycarbonyl-3″-acetyl-7-O-β-D-xylosyldiphyllin] | 2.3 | 0.23 | 16.3 | 4.98 | 386 | 108 |  |  | 
8 | COc1cc2c(OC3O[C@H](CO)[C@@H](O)[C@H](O)[C@H]3O)c3c(c(-c4ccc5c(c4)OCO5)c2cc1OC)C(=O)OC3 (stereo partly drawn) [Compound 26f, 7-O-β-D-glucopyranosyldiphyllin] |  | 371 | 516 | 1040 | > 9220 | 8650 |  |  | inhibition at 0.1 µg/mL ([2]; Influenza A virus, H5N1, A549, 100 ng/mL, read-out: % Inhibition against H5N1 virus): 62.4%; inhibition at 0.5 µg/mL [2, 9]: 87.2%; inhibition at 0.1 µg/mL ([3]; A549, 100 ng/mL, read-out: % Inhibition against EBOV): 82.7%; inhibition at 0.5 µg/mL [3, 10]: 89.1%; inhibition at 0.1 µg/mL ([4]; A549, 100 ng/mL, read-out: % Inhibition against VSV): 47.2%; inhibition at 0.5 µg/mL ([4]; A549, 500 ng/mL, read-out: % Inhibition against VSV): 70.8%; inhibition at 0.1 µg/mL [7]: -3.84%; inhibition at 0.5 µg/mL [7]: 18.2%
9 | COc1cc2c(OC3O[C@H](CO)[C@H](O)[C@H](O)[C@H]3O)c3c(c(-c4ccc5c(c4)OCO5)c2cc1OC)C(=O)OC3 (stereo partly drawn) [Compound 26g, 7-O-β-D-galactopyranosyldiphyllin] | 1400 | 63.6 | 123 | 210 | 7770 | 4130 |  |  | 
10 | CN(C)CCOc1ccc(/C(=C(/CCCl)c2ccccc2)c2ccccc2)cc1 [Toremifene, toremifene, reference compound] |  |  | 212 |  |  |  |  |  | inhibition at 0.5 µg/mL [2, 9]: 28.4%; inhibition at 0.5 µg/mL [3, 10]: 93.6%; inhibition at 0.5 µg/mL ([4]; A549, read-out: % Inhibition against VSV): 6.58%; inhibition at 0.5 µg/mL [7]: -15.1%
11 | COc1cc2c(O)c3c(c(-c4ccc5c(c4)OCO5)c2cc1OC)C(=O)OC3 [Compound 5, diphyllin] | 37.1 |  |  |  | 3610 |  |  |  | EC50 [6]: 150 nM
12 | COc1cc2c(OC3O[C@H](C)[C@@H](O)[C@H](OC(=O)C4CC4)[C@H]3O)c3c(c(-c4ccc5c(c4)OCO5)c2cc1OC)C(=O)OC3 (stereo partly drawn) [Compound 31g, 3″-O-cyclopropanecarbonyl-7-O-4i-D-patentiflorin A] |  |  |  |  | 26.7 |  | 97.9 | 98.1 | % Inhibition against H5N1 virus ([2]; 50 ng/mL): 89.0%; inhibition at 0.01 µg/mL ([2]; Influenza A virus, H5N1, A549, 10 ng/mL, read-out: % Inhibition against H5N1 virus): 78.9%; inhibition at 0.0125 µg/mL [2, 9]: 97.9%; inhibition at 0.01 µg/mL ([3]; A549, 10 ng/mL, read-out: % Inhibition against EBOV): 79.1%; inhibition at 0.05 µg/mL [3, 10]: 90.9%; inhibition at 0.01 µg/mL ([4]; A549, 10 ng/mL, read-out: % Inhibition against VSV): 63.3%; inhibition at 0.05 µg/mL [4, 11]: 95.7%; inhibition at 0.01 µg/mL [7]: 11%; inhibition at 0.05 µg/mL [7]: 54.6%
13 | COc1cc2c(OC3O[C@H](CO)[C@H]4OC(C)(C)O[C@@H]4[C@H]3O)c3c(c(-c4ccc5c(c4)OCO5)c2cc1OC)C(=O)OC3 (stereo partly drawn) [Compound 32a, 3″, 4″-Acetonide-4-O-β-D-glucopyranosyldiphyllin] |  | 0.63 | 1.2 | 18.1 | 52.7 | 61.6 |  |  | EC50 [6]: 2.95 nM
14 | COc1cc2c(N=C(c3ccccc3)c3ccccc3)c3c(c(-c4ccc5c(c4)OCO5)c2cc1OC)C(=O)OC3 [Compound 19p] | 249 |  |  |  | > 9200 |  |  |  | inhibition at 1 µg/mL [2, 9]: 82.1%; inhibition at 5 µg/mL [2, 9]: 96.5%; inhibition at 1 µg/mL [3, 10]: 58.1%; inhibition at 5 µg/mL [3, 10]: 89.4%; inhibition at 1 µg/mL [7]: -13%; inhibition at 5 µg/mL [7]: 17.2%
